Earlier results as cited in patent EP1017675B1, “HIGHLY LIPOPHILIC CAMPTOTHECIN DERIVATIVES” (BIONUMERIK PHARMACEUTICALS, INC., priority 1997, dated 1998).

Details: parenterally administered; fraction of the lactone form's potency

CC[C@@](O)(C(=O)O)c1cc2n(c(=O)c1CO)Cc1cc3ccccc3nc1-2 [carboxylate species]
antitumor potency relative to the lactone form: one-tenth
